The target of the test is Fluc (firefly luciferase) (Photinus pyralis, UniProt P08659). Put plainly: bioluminescence kinetics, luminometer, nonlinear regression. Format: biochemical. To be noted: ATP, Mg2+, pH 7.6; text says low millimolar range.

We go through two compounds from article PMC6163054 (Chembiochem : a European journal of chemical biology, 2018).

Fluc (firefly luciferase), sequence (P08659 whole entry): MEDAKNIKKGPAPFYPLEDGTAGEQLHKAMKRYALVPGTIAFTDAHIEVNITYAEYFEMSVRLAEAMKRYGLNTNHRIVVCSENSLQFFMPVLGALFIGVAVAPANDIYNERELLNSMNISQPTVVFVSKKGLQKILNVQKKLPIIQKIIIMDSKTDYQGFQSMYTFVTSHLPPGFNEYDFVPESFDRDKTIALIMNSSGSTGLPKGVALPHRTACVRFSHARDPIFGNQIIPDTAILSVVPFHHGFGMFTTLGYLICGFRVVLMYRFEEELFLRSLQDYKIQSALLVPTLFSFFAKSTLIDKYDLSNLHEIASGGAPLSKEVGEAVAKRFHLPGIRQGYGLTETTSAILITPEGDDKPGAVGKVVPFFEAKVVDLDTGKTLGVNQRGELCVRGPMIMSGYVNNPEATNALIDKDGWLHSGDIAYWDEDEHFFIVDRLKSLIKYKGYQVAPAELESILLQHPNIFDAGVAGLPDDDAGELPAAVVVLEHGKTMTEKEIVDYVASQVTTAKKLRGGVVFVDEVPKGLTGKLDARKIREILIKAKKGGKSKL

For `O=C(O)[C@H]1CSC(c2nc3c[nH]c(=O)cc3s2)=N1` [compound 3, (S)-2-(Thiazolo[4,5-c]pyridin-6(5H)-one-2-yl)-4,5-dihydrothiazole-4-carboxylic acid], the “apparent Km” value is “The apparent Km values measured for both luciferins were in the low millimolar range”.

For the compound `O=C(O)[C@H]1CSC(c2nc3ccc(=O)[nH]c3s2)=N1` [compound 4, (S)-2-(Thiazolo[5,4-b]pyridin-5(4H)-one-2-yl)-4,5-dihydrothiazole-4-carboxylic acid], the “apparent Km” value was “The apparent Km values measured for both luciferins were in the low millimolar range”.
